Results reported in PubChem BioAssay AID1259407 (Chemical Carcinogenesis Research Information System (CCRIS), 2018).
Activity calls are given as the source filed them. The rule behind the calls is not given here.

System: CCRIS mutagenicity, Ames/micronucleus/aberration tests
Experiment: CCRIS mutagenicity studies

Measured: mutagenic call

ClCCl
inactive: End Point: IN VITRO CHROMOSOMAL ABERRATIONS, Test System: CHO CELLS, Metabolic Activation: NONE inactive; negative | End Point: IN VITRO CHROMOSOMAL ABERRATIONS, Test System: CHO CELLS, Metabolic Activation: RAT, LIVER, S-9, AROCLOR 1254 inactive; negative | Test System: AMES SALMONELLA TYPHIMURIUM, Strain/Indicator: TA98, Metabolic Activation: NONE, Method: STANDARD PLATE inactive; negative | Test System: AMES SALMONELLA TYPHIMURIUM, Strain/Indicator: TA102, Metabolic Activation: NONE, Method: STANDARD PLATE inactive; negative
active: Test System: AMES SALMONELLA TYPHIMURIUM, Strain/Indicator: NG54 (GSH), Metabolic Activation: GLUTATHIONE active; positive | Test System: AMES SALMONELLA TYPHIMURIUM, Strain/Indicator: NG54 (GSH), Metabolic Activation: NONE active; positive | Test System: AMES SALMONELLA TYPHIMURIUM, Strain/Indicator: NG54 (GSH), Metabolic Activation: RAT, LIVER, S-9, AROCLOR 1254 active; positive | Test System: AMES SALMONELLA TYPHIMURIUM, Strain/Indicator: NG54 (GSH), Metabolic Activation: RAT, LIVER, S-9, AROCLOR 1254, GLUTATHIONE active; positive | Test System: AMES SALMONELLA TYPHIMURIUM, Strain/Indicator: NG-11, Metabolic Activation: GLUTATHIONE, Method: DESICCATOR active; positive | Test System: AMES SALMONELLA TYPHIMURIUM, Strain/Indicator: NG-11, Metabolic Activation: NONE, Method: DESICCATOR active; positive | Test System: AMES SALMONELLA TYPHIMURIUM, Strain/Indicator: RSJ100, Metabolic Activation: NONE, Method: STANDARD PLATE active; positive | Test System: AMES SALMONELLA TYPHIMURIUM, Strain/Indicator: TA97, Metabolic Activation: NONE, Method: STANDARD PLATE active; positive | Test System: AMES SALMONELLA TYPHIMURIUM, Strain/Indicator: TA97, Metabolic Activation: RAT, LIVER, S-9, AROCLOR 1254, Method: STANDARD PLATE active; positive | Test System: AMES SALMONELLA TYPHIMURIUM, Strain/Indicator: TA98, Metabolic Activation: NONE, Method: GAS EXPOSURE active; positive | Test System: AMES SALMONELLA TYPHIMURIUM, Strain/Indicator: TA98, Metabolic Activation: RAT, LIVER, S-9, AROCLOR 1254, Method: STANDARD PLATE active; positive | Test System: AMES SALMONELLA TYPHIMURIUM, Strain/Indicator: TA98, Metabolic Activation: RAT, LIVER, S-9, PHENOBARBITAL AND BETA-NAPHTHOFLAVONE, Method: GAS EXPOSURE active; positive | Test System: AMES SALMONELLA TYPHIMURIUM, Strain/Indicator: TA98, Metabolic Activation: RAT, LIVER, S-9, PHENOBARBITAL, Method: DESICCATOR active; positive | Test System: AMES SALMONELLA TYPHIMURIUM, Strain/Indicator: TA100, Metabolic Activation: GLUTATHIONE active; positive | Test System: AMES SALMONELLA TYPHIMURIUM, Strain/Indicator: TA100, Metabolic Activation: GLUTATHIONE, Method: DESICCATOR active; positive | Test System: AMES SALMONELLA TYPHIMURIUM, Strain/Indicator: TA100, Metabolic Activation: NONE active; positive | Test System: AMES SALMONELLA TYPHIMURIUM, Strain/Indicator: TA100, Metabolic Activation: NONE, Method: DESICCATOR active; positive | Test System: AMES SALMONELLA TYPHIMURIUM, Strain/Indicator: TA100, Metabolic Activation: NONE, Method: GAS EXPOSURE active; positive | Test System: AMES SALMONELLA TYPHIMURIUM, Strain/Indicator: TA100, Metabolic Activation: RAT, LIVER, MICROSOMES, AROCLOR 1254 active; positive | Test System: AMES SALMONELLA TYPHIMURIUM, Strain/Indicator: TA100, Metabolic Activation: RAT, LIVER, S-9, AROCLOR 1254 active; positive | Test System: AMES SALMONELLA TYPHIMURIUM, Strain/Indicator: TA100, Metabolic Activation: RAT, LIVER, S-9, AROCLOR 1254, GLUTATHIONE active; positive | Test System: AMES SALMONELLA TYPHIMURIUM, Strain/Indicator: TA100, Metabolic Activation: RAT, LIVER, S-9, AROCLOR 1254, Method: STANDARD PLATE active; positive | Test System: AMES SALMONELLA TYPHIMURIUM, Strain/Indicator: TA100, Metabolic Activation: RAT, LIVER, S-9, PHENOBARBITAL AND BETA-NAPHTHOFLAVONE, Method: GAS EXPOSURE active; positive | Test System: AMES SALMONELLA TYPHIMURIUM, Strain/Indicator: TA100, Metabolic Activation: RAT, LIVER, S-9, PHENOBARBITAL, Method: DESICCATOR active; positive | Test System: AMES SALMONELLA TYPHIMURIUM, Strain/Indicator: TA100, Metabolic Activation: RAT, LIVER, S-100, AROCLOR 1254 active; positive | Test System: AMES SALMONELLA TYPHIMURIUM, Strain/Indicator: TA104, Metabolic Activation: NONE, Method: STANDARD PLATE active; positive
